According to ChEMBL document CHEMBL1123900, “Thienothiopyran-2-sulfonamides: a novel class of water-soluble carbonic anhydrase inhibitors” (J Med Chem, 1987):
Converted amounts (≈) assume the structure as drawn.

What was measured:
[1] = Total solubility measured on pH 7.4 buffer at 25 degree C; format: ADME; settings: read-out: S
Carbonic anhydrase 2 [2] = molecular target: T1, Carbonic anhydrase 2 (Homo sapiens, UniProt P00918)
Description: In vitro binding to human erythrocyte Carbonic anhydrase II was determined by fluorescence competition assay employing the fluorescent CA inhibitor dansylamide

[3] = pKa value in 30% EtOH-H20; format: physicochemical; settings: 30% EtOH-H2O
Carbonic anhydrase 2 [4] = molecular target: T1, Carbonic anhydrase 2; remark: listed apart in the source
Description: In vitro inhibition against purified human erythrocyte carbonic anhydrase II was determined (acetozolamide used as control.)

[5] = Solubility (pH 7.4 buffer ar 25 degree C); format: physicochemical; settings: read-out: S
Carbonic anhydrase 2 [6] = molecular target: T1, Carbonic anhydrase 2; remark: listed apart in the source
Description: In vitro binding to human erythrocyte carbonic anhydrase was determined by fluorescence competition assay employing the fluorescent CA inhibitor dansylamide

[7] = Partition coefficient determined in 1-octanol buffer pH 7.4; format: physicochemical; settings: octanol/water

SMILES | pKa [3] | solubility [5] [µg/mL] | Partition coefficient [7] | solubility [1] [µg/mL] | Ki (Carbonic anhydrase 2 [2]) [nM] | IC50 (Carbonic anhydrase 2 [4]) [nM] | Ki (Carbonic anhydrase 2 [6]) [nM]
NS(=O)(=O)c1cc2c(s1)C(=O)CCS2 | 8.45 | – | – | 80 (≈ 0.321 mM) | 1.15 | 3.5 | –
NS(=O)(=O)c1cc2c(s1)C(O)CC[S+]2[O-] (configuration not stated) | 8.82 | 7200 (≈ 26.9 mM) | – | – | – | 250 | 309
NS(=O)(=O)c1cc2c(s1)CC(O)CS2(=O)=O (configuration not stated) | 8.52 | 7300 (≈ 25.8 mM) | 0.2 | – | – | 40 | 18.2
NS(=O)(=O)c1cc2c(s1)SCCC2O (configuration not stated) | 9.4 | 640 (≈ 2.55 mM) | – | – | 28 | 30 | –
NS(=O)(=O)c1cc2c(s1)SCCC2=O | 8.6 | 70 (≈ 0.281 mM) | – | – | 3.63 | 8.5 | –
NS(=O)(=O)c1cc2c(s1)[S+]([O-])CCC2O (configuration not stated) | 8.68 | 12000 (≈ 44.9 mM) | – | – | – | 100 | 104
NS(=O)(=O)c1cc2c(s1)C(O)CCS2 (configuration not stated) | 9 | 1400 (≈ 5.57 mM) | 3 | – | 14.2 | 23 | –

Further lines, with some results ahead:

pKa [3] | solubility [5] [µg/mL] | Partition coefficient [7] | SMILES | solubility [1] [µg/mL] | Ki (Carbonic anhydrase 2 [2]) [nM] | IC50 (Carbonic anhydrase 2 [4]) [nM] | Ki (Carbonic anhydrase 2 [6]) [nM]
7.32 | 60 (≈ 0.213 mM) | 0.63 | NS(=O)(=O)c1cc2c(s1)C(=O)CCS2(=O)=O | – | 14.1 | 22 | –
8.35 | 6300 (≈ 22.2 mM) | 0.42 | NS(=O)(=O)c1cc2c(s1)S(=O)(=O)CC[C@H]2O | – | – | – | –
8.3 | 6400 (≈ 22.6 mM) | 0.42 | NS(=O)(=O)c1cc2c(s1)S(=O)(=O)CC[C@@H]2O | – | – | – | –
– | 58 (≈ 0.184 mM) | – | CC(C)(C)C(=O)Oc1ccc2nc(S(N)(=O)=O)sc2c1 | – | – | – | –
8.35 | 12500 (≈ 44.1 mM) | 0.45 | NS(=O)(=O)c1cc2c(s1)S(=O)(=O)CCC2O (configuration not stated) | – | – | – | –
8.35 | 560 (≈ 2.09 mM) | – | NS(=O)(=O)c1cc2c(s1)S(=O)(=O)CCC2 | – | – | 4.5 | 3.3
7.92 | 270 (≈ 0.96 mM) | 0.92 | NS(=O)(=O)c1cc2c(s1)S(=O)(=O)CCC2=O | – | – | 5 | –
8.34 | 15000 (≈ 52.9 mM) | – | NS(=O)(=O)c1cc2c(s1)C(O)CCS2(=O)=O (configuration not stated) | – | 30.5 | 40 | –
8.6 | 8200 (≈ 28.9 mM) | – | NS(=O)(=O)c1cc2c(s1)S(=O)(=O)CC(O)C2 (configuration not stated) | – | – | 10 | 7.11
– | 24 (≈ 0.0929 mM) | – | CCOc1ccc2nc(S(N)(=O)=O)sc2c1 [ETHOXZOLAMIDE] | – | – | – | –
